62 compounds from the Bradley open melting point set (2014) can be followed below.

“And” between values parts separate entries of the source, which are not always exact repeats. Identical values can stand only once.

The melting point is the temperature, or range, at which the solid turns liquid. In turn, `CCCCNC(=O)NS(=O)(=O)c1ccc(C)cc1` [Tolbutamide] had a melting point of 128 °C. The compound `NC(=O)/C(=N\Nc1ccc(O)cc1)c1nc2ccccc2s1` registered a melting point of 161 °C. Then `O=C(CO)CO` [1,3-Dihydroxyacetone], with 75 °C. Then `Nc1ccc(N)cc1` [p-phenylenediamine], with 140 °C; and `O=C1c2ccccc2-c2ccccc21` [9-fluorenone], with 84 °C. For `CC(=O)Nc1ccc(/C=C/c2ccc(NC(C)=O)cc2)cc1` [N,N'-[(E)-ethene-1,2-diyldibenzene-4,1-diyl]diacetamide], the melting point came to 172 °C. Then `O=C(O)CCC(=O)c1ccc(-c2ccccc2)cc1` [Fenbufen], with 186 °C; and `O=C(O)C(=Cc1ccccc1)Cc1ccccc1` [2-benzyl-3-phenylacrylic acid], with 158 °C; and `CCC(C)N` (configuration not stated) [2-aminobutane], with -104 °C.

Regarding `COB(OC)OC` [trimethyl borate], the melting point was -34 °C. As for `CO[C@@H]1[C@@H](O[C@@H]2O[C@H](C)[C@@H](O[C@H]3C[C@@](C)(O)[C@@H](OC(=O)CC(C)C)[C@H](C)O3)[C@H](N(C)C)[C@H]2O)[C@@H](CC=O)C[C@@H](C)[C@@H](O)C=CC=CC[C@@H](C)OC(=O)C[C@H]1OC(C)=O` [Josamycin], the figure is 132 °C.

In turn, `O=C(O)CCCC(=O)O` [glutaric acid] displayed a melting point of 97 °C. As for `CC(C)OC(=O)/N=N/C(=O)OC(C)C` [diisopropyl azodicarboxylate], the figure is 4 °C; as for `O=C1OC(c2ccccc2)=NC1=Cc1ccc(-c2ccccc2)o1` [2-Phenyl-4-(5-phenyl-furan-2-ylmethylene)-4H-oxazol-5-one], 143 °C. Then `CC(=O)OC1CCC2C3CCC4CC(=C(C)C)CCC4(C)C3CCC12C` (configuration not stated) [3-(1-methylethylidene)androstan-17-yl acetate], with 108 °C; and `CC1=NS(=O)(=O)c2cc(Cl)ccc2N1` [Diazoxide], with 330 °C; and `CCCCCCC` [Heptane], with -91 °C. Then `C=CCCCCCCCCCCCCCCCC` [1-octadecene], with 18 °C; and `Cc1ccc(C(=O)c2ccccc2)cc1` [4-Methylbenzophenone], with 50 °C; and `C[C@]12CCC(O)CC1=CC(=O)[C@@H]1[C@@H]2CC[C@]2(C)C(=O)CC[C@@H]12` (some centres not stated) [3-hydroxyandrost-5-ene-7,17-dione], with 238 °C. Consider `Cl[C@H]1[C@H](Cl)[C@@H](Cl)[C@@H](Cl)[C@H](Cl)[C@H]1Cl` [lindane], for which the melting point was 113 °C and 112 °C.

Regarding `O=C(CC(=O)c1ccccc1)c1ccccc1` [1,3-Diphenylpropane-1,3-dione], the melting point was determined as 77 °C. As for `CSC` [dimethyl_sulfide], the figure is -98 °C; as for `O=C(O)CCI` [3-iodopropionic acid], 82 °C; as for `N#CCCc1ccccc1` [3-phenylpropionitrile], -2 °C.

Take `COC1=CC(=O)C[C@@H](C)[C@]12Oc1c(Cl)c(OC)cc(OC)c1C2=O` [griseofulvin]: the melting point was determined as 219 °C. As for `CCCC(=O)OC` [Methyl butyrate], the figure is -95 °C; as for `CC1=CC(C)=NC2N=NC(N)=C12` (configuration not stated) [4,6-Dimethyl-2H-pyrazolo[3,4-b]pyridin-3-amine], 280 °C. As for `CC[SiH2]CC` [diethylsilane], the figure is -132 °C; as for `CCOC(=O)c1c[nH]nc1N` [ethyl 3-amino-1h-pyrazole-4-carboxylate], 106 °C; as for `NCCCCCCO` [6-amino-1-hexanol], 57 °C. Regarding `O=[N+]([O-])c1ccccc1C=NO` [2-nitrobenzaldoxime], the melting point turned out to be 100 °C. Turning to `O=[N+]([O-])c1ccc(O)c(Cl)c1` [2-chloro-4-nitrophenol], the melting point is 110 °C. `O=C1CCCCCCC1` [cyclooctanone] showed a melting point of 41 °C. As for `Nc1ccccc1N1CCOCC1` [2-(4-morpholinyl)aniline], the figure is 97 °C. With `c1cc2cccc3c4cccc5cccc(c(c1)c23)c54` [perylene], the melting point is 277 °C and 278 °C (2×). Then `Cc1ccc(I)cc1N` [5-iodo-2-methylaniline], with 48 °C; and `COC(=O)c1ccc(B(O)O)cc1` [4-(methoxycarbonyl)benzeneboronic acid], with 223 °C.

Regarding `ClC1=C(Cl)[C@]2(Cl)[C@H]3[C@H]([C@@H]4C=C[C@H]3C4)[C@@]1(Cl)C2(Cl)Cl`, the melting point worked out at 104 °C. As for `Cn1c(C=O)nc2ccccc21` [1-methylbenzimidazole-2-carboxaldehyde], the figure is 120 °C; as for `CCc1ccc(C)nc1N` [2-amino-3-ethyl-6-methylpyridine], 47 °C; as for `COc1ccccc1NC(=O)/C=CC(=O)O` [N-(2-methoxyphenyl)maleamic acid], 144 °C. As for `O=C(O)c1ccccc1OP(=O)(O)O` [2-carboxyphenyl phosphate], the figure is 164 °C.

With `CCCCCCCCCCCCCCC(C)O` (configuration not stated) [2-hexadecanol], the melting point was found to be 47 °C. Then `CCOC(=O)/C(C#N)=C/c1ccc(-c2ccccc2Br)o1`, with 124 °C; and `CC(Br)C(C)(Br)Br` (configuration not stated) [2,3,3-tribromobutane], with 2 °C. Then `Cc1noc(NS(=O)(=O)c2ccc(N)cc2)c1C` [Sulfisoxazole], with 194 °C; and `CC1(C)[C@@H](C(=O)O)CC[C@@]1(C)C(=O)O` [(1R,3S)-camphoric acid], with 186 °C. As for `C=Cc1ccc(C#N)cc1` [p-cyanostyrene], the figure is -15 °C; as for `Cc1ccc(N)c(Br)c1` [2-bromo-4-methylaniline], 15 °C; as for `COc1ccc2ccccc2c1C=O` [2-methoxy-1-naphthaldehyde], 84 °C.

In turn, `O=C=N/c1cccc(N=C=O)c1C` [1,3-Diisocyanato-2-methylbenzene] had a melting point of 20 °C. With `CCCN(CCC)S(=O)(=O)c1ccc(C(=O)O)cc1` [probenecid], the melting point turned out to be 198 °C. Compound `C[C@H](O)[C@@H](C)O` [(2R,3S)-Butane-2,3-diol] returned a melting point of 33 °C. Then `Nc1ccccc1C(=O)O` [o-aminobenzoic_acid], with 146 °C. As for `CCCCCCCC(=O)Oc1ccc(/N=N/c2ccc(CCCC)cc2)cc1` [4-[(E)-(4-butylphenyl)diazenyl]phenyl octanoate], the figure is 64 °C. `CNC(=O)O/N=C(\C)SC` [Methyl (1E)-N-[(methylcarbamoyl)oxy]ethanimidothioate] yielded a melting point of 79 °C.

Compound `CCN(CC)CCNC(=O)c1cc(Cl)c(N)cc1OC` [Metoclopramide] came in with a melting point of 147 °C. Then `CCC(C)Cl` (configuration not stated) [2-chlorobutane], with -141 °C. Then `Cc1cccc(Nc2ccccc2C(=O)O)c1C` [mefenamic acid], with 230 °C; and `CC#N` [methyl_cyanide], with -46 °C; and `Oc1ccc(F)cc1Cl` [2-chloro-4-fluorophenol], with 22 °C.
